# Data: ChEMBL document CHEMBL5131514, “Structure and Mechanism-Guided Design of Dual Serine/Metallo-Carbapenemase Inhibitors” (J Med Chem, 2022)
# Tests used:
# [1] = Binding affinity to recombinant full-length bacterial beta-lactamase KPC-2 assessed as inhibition constant using nitrocefin as substrate by spectrophotometric assay; parameters: species or system Bacteria
# [2] = Binding affinity to bacterial beta-lactamase VIM-1 expressed in Escherichia coli BL21 (DE3) assessed as inhibition constant using nitrocefin as substrate by spectrophotometric assay; parameters: species or system Bacteria
# [3] = Binding affinity to Pseudomonas aeruginosa beta-lactamase IMP-1 expressed in Escherichia coli Lemo21(DE3) assessed as inhibition constant using nitrocefin as substrate by spectrophotometric assay
# [4] = Inhibition of bacterial beta-lactamase KPC-2 expressed in Escherichia coli BL21 (DE3) assessed as inhibition constant using nitrocefin as substrate by microplate reader analysis; parameters: species or system Bacteria
# [5] = Inhibition of bacterial beta-lactamase NDM-1 (42 to 270 residues) expressed in Escherichia coli BL21 (DE3) assessed as inhibition constant using nitrocefin as substrate by microplate reader analysis; parameters: species or system Bacteria
# [6] = tested on: Bacteria; test: Inhibition of bacterial beta-lactamase CTX-M-15 at 200 uM CENTA substrate by colorimetric assay relative to control
# [7] = tested on: Bacteria; test: Inhibition of bacterial beta-lactamase KPC-2 at 200 uM using CENTA substrate by colorimetric assay relative to control
# [8] = tested on: Bacteria; test: Inhibition of recombinant bacterial beta-lactamase […] (28 to 270 residues) at 200 uM using CENTA substrate by colorimetric assay relative to control
# [9] = tested on: Bacteria; test: Inhibition of recombinant bacterial beta-lactamase VIM-2 (26 to 266 residues) expressed in Escherichia coli Lemo21(DE3) at 200 uM using CENTA substrate by colorimetric assay relative to control
# [10] = tested on: Bacteria; test: Inhibition of bacterial beta-lactamase AmpC at 200 uM using CENTA substrate by colorimetric assay relative to control
# [11] = Inhibition of bacterial beta-lactamase CTX-M-15 assessed as inhibition constant using cephalothin as substrate by spectrophotometric assay; parameters: species or system Bacteria
# [12] = Inhibition of recombinant bacterial beta-lactamase […] (28 to 270 residues) assessed as inhibition constant using imipenem as substrate by spectrophotometric assay; parameters: species or system Bacteria
# [13] = Inhibition of bacterial beta-lactamase KPC-2 using nitrocefin as substrate incubated for 10 mins and measured every 10 seconds for 10 mins; parameters: species or system Bacteria
# [14] = Inhibition of bacterial beta-lactamase CTX-M-15 using nitrocefin as substrate incubated for 10 mins and measured every 10 seconds for 10 mins; parameters: species or system Bacteria
# [15] = Inhibition of bacterial beta-lactamase SHV-12 using nitrocefin as substrate incubated for 10 mins and measured every 10 seconds for 10 mins; parameters: species or system Bacteria
# [16] = Inhibition of bacterial beta-lactamase TEM-10 using nitrocefin as substrate incubated for 10 mins and measured every 10 seconds for 10 mins; parameters: species or system Bacteria
# [17] = Inhibition of bacterial beta-lactamase P99 using nitrocefin as substrate incubated for 10 mins and measured every 10 seconds for 10 mins; parameters: species or system Bacteria
# [18] = Inhibition of bacterial beta-lactamase OXA-48 using nitrocefin as substrate incubated for 10 mins and measured every 10 seconds for 10 mins; parameters: species or system Bacteria
# [19] = Inhibition of bacterial beta-lactamase IMP-1 using imipenem as substrate incubated for 10 mins followed by substrate addition measured every 30 seconds for 1 hr; parameters: species or system Bacteria
# [20] = Inhibition of bacterial beta-lactamase VIM-1 using nitrocefin as substrate incubated for 10 mins followed by substrate addition measured every 10 seconds for 10 mins; parameters: species or system Bacteria
# [21] = Inhibition of recombinant bacterial beta-lactamase VIM-2 MBL (27 to 266 residues) expressed in Escherichia coli Transetta (DE3) using FC-1 as substrate preincubated for 10 mins followed by substrate addition measured every 60 secs by fluorescence based assay; parameters: species or system Bacteria
# [22] = Inhibition of recombinant bacterial beta-lactamase NDM-1 MBL (1 to 270 residues) expressed in Escherichia coli Transetta (DE3) using FC-1 as substrate preincubated for 10 mins followed by substrate addition measured every 60 secs by fluorescence based assay; parameters: species or system Bacteria
# [23] = Inhibition of recombinant bacterial beta-lactamase TEM-1 SBL (24 to 286 residues) expressed in Escherichia coli Transetta (DE3) using FC-1 as substrate preincubated for 4 hrs followed by substrate addition measured every 60 secs by fluorescence based assay; parameters: species or system Bacteria
structure (smiles),measurement,setting,value
S=c1[nH]ncn1/N=C/c1c[nH]c2ccccc12,Ki,[1],139 µM
same,Ki,[2],95 µM
same,Ki,[3],104 µM
Sc1nncn1/N=C/c1ccc(Br)cc1,Ki,[1],158 µM
same,Ki,[2],58 µM
same,Ki,[3],285 µM
CCN(CC)c1ccc(CNn2cn[nH]c2=S)cc1,Ki,[1],263 µM
same,Ki,[2],224 µM
same,Ki,[3],173 µM
O=C(Nc1nnn[nH]1)C(c1ccccc1)[S+]([O-])c1ccccc1 (centres undefined),Ki,[4],1570 µM
same,Ki,[5],204 µM
S=C(N/N=C/c1ccccc1)N1CCOCC1,inhibition,[6],32%
same,inhibition,[7],41%
same,inhibition,[8],71%
same,inhibition,[9],33%
same,inhibition,[10],50%
same,Ki,[11],50 µM
same,Ki,[12],32 µM
O=C(O)c1c(F)ccc2c1OB(O)[C@@H]1C[C@H]21 [XERUBORBACTAM],IC50,[13],2.9 nM
same,IC50,[14],1.2 nM
same,IC50,[15],1.9 nM
same,IC50,[16],2.2 nM
same,IC50,[17],22 nM
same,IC50,[18],1.1 nM
same,IC50,[19],610 nM
same,IC50,[20],14 nM
S=c1[nH]ncn1NCc1ccc2c(c1)OCO2,Ki,[1],138 µM
same,Ki,[2],120 µM
same,Ki,[3],125 µM
Sc1nnc(-c2ccco2)n1C1CC1,inhibition,[6],49%
same,inhibition,[7],46%
same,inhibition,[8],62%
same,inhibition,[9],81%
same,inhibition,[10],< 20%
O=P(O)(O)C(c1ccc2ccccc2c1-c1ccccn1)P(=O)(O)O,IC50,[21],3.78 µM
same,IC50,[22],17.1 µM
same,IC50,[23],1.73 µM
Sc1nnc(-c2cccnc2)n1CC1CCCO1 (centres undefined),inhibition,[6],33%
same,inhibition,[7],< 20%
same,inhibition,[8],54%
same,inhibition,[9],87%
same,inhibition,[10],< 20%
CCn1c(S)nnc1-c1nn(C)c(C)c1Cl,inhibition,[6],< 20%
same,inhibition,[7],< 20%
same,inhibition,[8],70%
same,inhibition,[9],86%
same,inhibition,[10],37%
O=C(Nc1nnn[nH]1)c1cc(-c2ccccc2)nn1-c1ccccc1,Ki,[4],44 µM
same,Ki,[5],62 µM
O=C(NC(=S)NNC(=O)c1cccs1)c1ccc(Br)o1,inhibition,[6],55%
same,inhibition,[7],66%
same,inhibition,[8],79%
same,inhibition,[9],45%
same,inhibition,[10],32%
O=P(O)(O)C(c1ccccc1-c1ccccn1)P(=O)(O)O,IC50,[21],11.1 µM
same,IC50,[22],32 µM
same,IC50,[23],68.4 µM
O=P(O)(O)C(c1cc2ccccc2n1-c1ncccn1)P(=O)(O)O,IC50,[21],5.58 µM
same,IC50,[22],15 µM
same,IC50,[23],11.5 µM
O=C(Nc1nnn[nH]1)c1cc(-c2ccccc2)n(-c2ccccc2)n1,Ki,[4],239 µM
same,Ki,[5],56 µM
O=C(Nc1nnn[nH]1)C(Nc1ccccc1)c1ccccc1 (centres undefined),Ki,[4],479 µM
same,Ki,[5],477 µM
